# Assays:
# [1] = test system: LNCaP cells (T877A mutation in the AR LBD); assay: PSA level (ELISA) in LNCaP cell line; format: cell-based, human; conditions: for IC50: Homo sapiens, LNCaP, dihydrotestosterone 10 nM, 48 h, ± SEM
# Excerpt: Chronic administration of AR antagonists often leads to the development of resistance. […] In contrast, another AR antagonist, enzalutamide, was reported to antagonize AR mutant T877A [23]. Thus, development of a novel chemical class of AR antagonists, different from flutamide analogs seems an attractive approach for the treatment of AR antagonist-resistant cancer, providing further motivation to evaluate steroid surrogates. Therefore, we investigated the antiandrogenic activity of several potent AR antagonists by means of PSA (prostate-specific antigen, an AR-regulated gene) ELISA (enzyme-linked immunosorbent assay) in human prostate cancer cell line LNCaP, which has T877A mutation in the AR LBD.
# The human prostate cancer cell line LNCaP (ECACC, London, UK) was routinely maintained in RPMI1640 containing 10% (v/v) fetal bovine serum, and penicillin/streptomycin at 37 °C in a humidified atmosphere of 5% CO2 in air. Cells were cultured in RPMI1640 without phenol red containing 10% (v/v) charcoal-stripped fetal bovine serum, and penicillin/streptomycin at 37 °C in a humidified atmosphere of 5% CO2 in air for 3 days. Then cells were plated in 96-well plates at 1 × 10^4 cells/well and incubated overnight. On the next day, cells were treated with fresh media containing test compound plus dihydrotestosterone (final concentration 10 nM), and incubated for 48 h. Then, PSA levels were measured in the culture supernatants, after 100-fold dilution with the medium, using ELISA (Immunospec Corp., CA, USA Free prostate-specific antigen cat. #E29-212) according to the manufacturer’s instructions. All data points were carried out twice in triplicate.
# [2] = molecular target: T1, RORα (Homo sapiens, UniProt P35398); conditions: reporter gene assay, HEK293; read-out: RORα inverse agonistic activity (IC50); cited from earlier work
# T1 construct: expressed in transfected cells; host or cells: HEK293
# T1 sequence (P35398 1-523): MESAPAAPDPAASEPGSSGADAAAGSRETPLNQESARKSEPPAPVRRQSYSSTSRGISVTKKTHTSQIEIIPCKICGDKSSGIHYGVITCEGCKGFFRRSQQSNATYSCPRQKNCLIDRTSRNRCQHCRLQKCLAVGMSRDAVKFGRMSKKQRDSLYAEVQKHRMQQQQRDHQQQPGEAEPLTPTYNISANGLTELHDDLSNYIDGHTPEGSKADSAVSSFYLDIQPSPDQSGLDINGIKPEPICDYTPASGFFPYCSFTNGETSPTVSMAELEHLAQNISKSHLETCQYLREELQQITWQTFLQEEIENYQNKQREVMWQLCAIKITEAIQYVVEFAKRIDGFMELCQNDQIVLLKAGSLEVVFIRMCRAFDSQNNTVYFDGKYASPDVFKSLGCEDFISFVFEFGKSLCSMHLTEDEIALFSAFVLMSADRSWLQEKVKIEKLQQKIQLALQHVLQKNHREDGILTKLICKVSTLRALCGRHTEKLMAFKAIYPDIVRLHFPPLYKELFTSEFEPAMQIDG
# [3] = molecular target: T2, RORγ (Homo sapiens, UniProt P51449); conditions: reporter gene assay, HEK293; read-out: RORγ inverse agonistic activity (IC50); cited from earlier work
# T2 construct: expressed in transfected cells; host or cells: HEK293
# T2 sequence (P51449 1-518): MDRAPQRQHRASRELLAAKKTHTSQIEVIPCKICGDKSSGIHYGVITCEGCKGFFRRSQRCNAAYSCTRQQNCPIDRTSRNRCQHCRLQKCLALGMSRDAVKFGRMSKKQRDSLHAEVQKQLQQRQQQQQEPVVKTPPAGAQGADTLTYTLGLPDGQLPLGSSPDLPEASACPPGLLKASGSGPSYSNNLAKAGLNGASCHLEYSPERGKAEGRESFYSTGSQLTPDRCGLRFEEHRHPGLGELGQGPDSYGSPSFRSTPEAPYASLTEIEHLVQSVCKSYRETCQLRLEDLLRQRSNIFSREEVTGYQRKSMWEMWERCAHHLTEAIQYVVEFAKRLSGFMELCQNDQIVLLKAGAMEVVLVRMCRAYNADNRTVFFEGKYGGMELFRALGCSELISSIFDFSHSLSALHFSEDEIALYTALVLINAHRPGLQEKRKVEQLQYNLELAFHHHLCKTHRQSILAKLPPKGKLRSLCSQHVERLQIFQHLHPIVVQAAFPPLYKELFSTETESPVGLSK
# [4] = molecular target: T3, PR (Homo sapiens, UniProt P06401); conditions: cited from earlier work; for IC50: alkaline phosphatase, T47D cells, progesterone 1 nM, read-out: PR antagonistic activity (IC50)
# T3 sequence (P06401 1-933): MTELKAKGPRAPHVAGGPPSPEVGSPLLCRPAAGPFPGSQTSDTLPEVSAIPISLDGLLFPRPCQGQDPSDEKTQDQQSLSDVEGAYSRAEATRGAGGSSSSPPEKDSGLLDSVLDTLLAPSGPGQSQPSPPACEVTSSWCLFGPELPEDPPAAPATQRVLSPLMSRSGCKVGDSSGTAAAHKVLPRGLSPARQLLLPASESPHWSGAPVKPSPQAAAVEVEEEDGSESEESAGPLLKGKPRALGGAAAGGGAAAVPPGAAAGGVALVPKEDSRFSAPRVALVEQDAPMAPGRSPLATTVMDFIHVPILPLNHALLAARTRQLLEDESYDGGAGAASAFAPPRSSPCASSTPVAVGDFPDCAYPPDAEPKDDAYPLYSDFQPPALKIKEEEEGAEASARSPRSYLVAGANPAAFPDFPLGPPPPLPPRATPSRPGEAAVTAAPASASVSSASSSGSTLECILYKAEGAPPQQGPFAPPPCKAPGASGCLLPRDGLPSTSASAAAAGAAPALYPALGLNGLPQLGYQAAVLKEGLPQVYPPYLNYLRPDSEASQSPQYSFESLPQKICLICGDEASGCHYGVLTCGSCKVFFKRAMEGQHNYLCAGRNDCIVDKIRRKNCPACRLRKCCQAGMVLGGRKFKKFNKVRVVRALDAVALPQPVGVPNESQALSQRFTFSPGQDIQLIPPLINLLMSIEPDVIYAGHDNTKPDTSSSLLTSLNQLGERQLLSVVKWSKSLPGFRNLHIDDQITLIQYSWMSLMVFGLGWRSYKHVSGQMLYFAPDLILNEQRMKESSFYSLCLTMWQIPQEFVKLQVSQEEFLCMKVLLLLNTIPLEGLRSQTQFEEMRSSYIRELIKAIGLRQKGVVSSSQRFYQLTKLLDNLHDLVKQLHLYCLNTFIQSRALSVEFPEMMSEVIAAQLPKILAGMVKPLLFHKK
SMILES,IC50 [1] [µM],IC50 [2] [µM],IC50 [3] [µM],enhanced PR activity compared with unsubstituted analog 12 [4],IC50 [4] [µM],antiandrogenic activity in LNCaP [1]
O=c1[nH]c2ccc(C(O)(C(F)(F)F)C(F)(F)F)cc2c2ccccc12 [Compound 1],> 10,> 20,> 20,–,–,–
CCCCn1c(=O)c2ccccc2c2ccccc21 [Compound 7],–,10,15,–,–,–
CCCCn1c(=O)c2ccccc2c2cc(C(C)(C)C)ccc21 [Compound 10],–,12,10,–,–,–
CCCCn1c(=O)c2ccccc2c2cc(CO)ccc21 [Compound 11],–,> 20,> 20,–,–,–
Cn1c(=O)c2ccccc2c2cc(C(O)(C(F)(F)F)C(F)(F)F)ccc21 [Compound 13],> 10,> 20,> 20,–,–,–
CCn1c(=O)c2ccccc2c2cc(C(O)(C(F)(F)F)C(F)(F)F)ccc21 [Compound 14],–,> 20,> 20,–,–,–
CCCCCCCCCn1c(=O)c2ccccc2c2cc(C(O)(C(F)(F)F)C(F)(F)F)ccc21 [Compound 17],–,> 20,> 20,–,–,–
CCCCn1c(=O)c2ccccc2c2c(OC)c(C(O)(C(F)(F)F)C(F)(F)F)ccc21 [Compound 18],–,> 20,> 20,–,–,–
CCCCn1c(=O)c2ccccc2c2cc(C(O)(C(F)(F)F)C(F)(F)F)c(OC)cc21 [Compound 19],–,8.2,7.5,more than 3 fold,–,–
CCCCn1c(=O)c2ccccc2c2cc(C(O)(C(F)(F)F)C(F)(F)F)cc(OC)c21 [Compound 20],–,7.5,5.4,> 2 fold,–,–
CCCCn1c(=O)c2c(OC)cccc2c2cc(C(O)(C(F)(F)F)C(F)(F)F)ccc21 [Compound 21],–,12,13,–,–,–
CCCCn1c(=O)c2cc(OC)ccc2c2cc(C(O)(C(F)(F)F)C(F)(F)F)ccc21 [Compound 22],–,12,13,–,–,–
CCCCn1c(=O)c2ccc(OC)cc2c2cc(C(O)(C(F)(F)F)C(F)(F)F)ccc21 [Compound 23],–,6.6,2.7,–,–,–
CCCCn1c(=O)c2cccc(OC)c2c2cc(C(O)(C(F)(F)F)C(F)(F)F)ccc21 [Compound 24],–,7.7,8.5,–,–,–
CCCCn1c(=O)c2ccccc2c2cc(C(O)(C(F)(F)F)C(F)(F)F)c(OC)c(OC)c21 [Compound 25],–,> 10,8.5,–,0.51,–
CCCCn1c(=O)c2ccccc2c2cc(C(O)(C(F)(F)F)C(F)(F)F)c3c(c21)OCO3 [Compound 26],0.56 ± 0.26,> 20,> 20,–,0.23,–
CCCCn1c(=O)c2cc(OC)ccc2c2cc(C(O)(C(F)(F)F)C(F)(F)F)c(OC)cc21 [Compound 27],–,9.5,12,–,0.3,–
CCCCn1c(=O)c2cc(OC)ccc2c2cc(C(O)(C(F)(F)F)C(F)(F)F)cc(OC)c21 [Compound 28],–,11,9.7,–,0.34,–
CCCCn1c(=O)c2c(OC)c(OC)ccc2c2cc(C(O)(C(F)(F)F)C(F)(F)F)ccc21 [Compound 29],–,7.3,8,–,4.2,–
CCCCn1c(=O)c2c(OC)cc(OC)cc2c2cc(C(O)(C(F)(F)F)C(F)(F)F)ccc21 [Compound 30],–,> 20,> 20,–,> 20,–
CCCCn1c(=O)c2cc(OC)c(OC)cc2c2cc(C(O)(C(F)(F)F)C(F)(F)F)ccc21 [Compound 31],–,18,19,–,9.6,–
O=c1[nH]c2c(F)cc(C(O)(C(F)(F)F)C(F)(F)F)cc2c2ccccc12 [Compound 32],0.49 ± 0.26,15,18,–,–,–
O=c1[nH]c2ccc(C(O)(C(F)(F)F)C(F)(F)F)cc2c2cccc(F)c12 [Compound 33],0.19 ± 0.095,7.9,13,–,–,–
O=c1[nH]c2ccc(C(O)(C(F)(F)F)C(F)(F)F)cc2c2ccc(F)cc12 [Compound 34],> 10,17,> 20,–,–,–
O=c1[nH]c2ccc(C(O)(C(F)(F)F)C(F)(F)F)cc2c2cc(F)ccc12 [Compound 35],0.55 ± 0.11,9.8,5,–,–,–
COc1cc(C(O)(C(F)(F)F)C(F)(F)F)cc2c1[nH]c(=O)c1ccccc12 [Compound 39],–,> 20,9.6,–,–,–
CCc1cc(C(O)(C(F)(F)F)C(F)(F)F)cc2c1[nH]c(=O)c1ccccc12 [Compound 41],–,> 20,> 20,–,–,–
CCCc1cc(C(O)(C(F)(F)F)C(F)(F)F)cc2c1[nH]c(=O)c1ccccc12 [Compound 42],–,> 20,9.9,–,–,–
"O=c1[nH]c2c(Cl)cc(C(O)(C(F)(F)F)C(F)(F)F)cc2c2ccccc12 [Compound 43, 4-Chloro-2-(1,1,1,3,3,3-hexafluoro-2-hydroxypropan-2-yl)phenanthridin-6(5H)-one]",> 10,–,–,–,–,did not show antiandrogenic activity

# — PMC6073568, “Efficient Lead Finding, Activity Enhancement and Preliminary Selectivity Control of Nuclear Receptor Ligands Bearing a Phenanthridinone Skeleton” (International Journal of Molecular Sciences, 2018)
